# Reference: PMC3673949, “Small Molecule R1498 as a Well-Tolerated and Orally Active Kinase Inhibitor for Hepatocellular Carcinoma and Gastric Cancer Treatment via Targeting Angiogenesis and Mitosis Pathways” (PLoS ONE, 2013)
# Like-named read-outs stand apart in the source and are kept apart here.
# What was measured:
# [1] = system: HUVEC (VEGF 165 stimulated); assay: VEGF-induced HUVEC proliferation assay; assay type: cell-based; conditions: Homo sapiens, 0.5% FBS with VEGF 165, 72 h
# Procedure: Each cell line was seeded in a 96-well tissue culture plate (Corning, NY) at a predetermined density in 180 µL complete medium, attached overnight and treated by compound for another 72 h. Then the medium was discarded and replaced with 10% CCK-8 (Dojindo, Kumamoto, Japan) in complete medium, then incubated the plates for another 2 h. The OD450 was measured with SpectraMAX 190 spectrophotometer (MDS, Sunnyvale, CA). A background absorbance of ODblank was subtracted from all wells.
# In VEGF-induced HUVEC proliferation assay, the HUVECs suspended in 170 µL EGM-2 with 0.5% FBS were seeded and incubated overnight. After the cells attached, 10 µL 1 µg/ml recombinant human VEGF 165 (R&D systems, Minneapolis, MN) was added to each well together with 20 µl compound solutions prepared in EGM-2 with 0.5% FBS. The CCK-8 assay as above was used for determination of cell viability.
# [2] = Single dose pharmacokinetic (SDPK) study; assay type: in vivo; conditions: Nude Mouse
# Procedure: Before the pharmacokinetic study, animals were randomly assigned to the sampling groups (3 animals per time point). Ten additional mice were used to collected plasma blank for calibration curves. The mice were fasted overnight before oral administration. […] The plasma samples and the dose formulation were stored at −20°C until bioanalysis. The data acquisition and control system were created using Analyst 1.4 software from ABI Inc. The concentrations in plasma below the limit of quantitation (LOQ = 1 ng/mL) were designated as zero. […] For rat, dog and monkey SDPK, the blood samples were collected from jugular vein puncture.
# HUVEC = HUVEC tube formation assay; assay type: cell-based, human
# CNE-2 xenograft = system: CNE-2 xenograft
# Description: The use and care of experimental animal was approved by Institutional Animal Care and Use Committee, Roche R&D Center (China). Tumor cells were inoculated into the right flank of BALB/C nu/nu female nude mice (5∼6 weeks, 16∼18 g, obtained from Sino-British SIPPR/BK Lab. Animal Ltd, Shanghai, China) at optimal density based on our in-house validation study. After the tumor was established and reached 100∼150 mm^3, the mice were randomized into ten mice per group and received treatment according to the schedule. The tumor growth was recorded three times a week with the measurement of length (L) and width (W) by caliper, and calculated as tumor volume (TV, mm^3) = 0.5*L*W*W (mm). […] The tumor regression of individual mouse was defined - the tumor volume at the end was less than the tumor volume when treatment was initiated.
# [3] = Dose range finding and toxicokinetic study; assay type: in vivo
# Procedure: (§1) Dose range finding and toxicokinetic study was carried out in rats and Beagle dogs based on in vitro metabolites identification. Wistar rats (male: 3, female 3 in each group, from Vital River, Beijing, China) were fasted overnight, and then received test articles as 0, 6.25, 50 and 100 mg/kg twice a day per oral gavage for a 14-day continuous regimen. Motility observation was applied on a daily bases to find the maximum tolerant dose for the animals. The animals were sacrificed on d14, and the following toxicology observation were carried out including body weight changes, clinical observation, gross necropsy, hematology chemistry and histopathology. On day 1 and day 14, blood samples were obtained via jugular vein puncture from all animals (if alive, using EDTA-K2 tubes). Samples were mixed gently and placed on crushed wet-ice until centrifugation, which was carried out immediately. The samples were centrifuged for approximately 15 minutes at 4°C 2,700 rpm. The resultant plasma was separated, transferred to uniquely labeled clear polypropylene tubes and frozen immediately over solid carbon dioxide (dry ice) until transferred to approximately −80°C. Each animal was bled at the following time points: approximately 5 min, 15 min, 30 min, 1, 2, 4, 8 and 24 hours post first dose on the specific day. The drug concentrations in the plasma were determined by LC-MS/MS. The pharmacokinetic analysis was performed using WinNonlin software (Version 5.2, Pharsight Corporation, CA, USA), and the pharmacokinetic parameters were calculated using a Non-compartmental model method.
# Beagle dogs (approximately 8–10 months, from Beijing Marshall Biotechnology Co. Ltd., Beijing, China) were subjected to the study protocol as described above. Each group has one male and one female dog, the dosages of test article were: 0, 1, 7.5 and 15 mg/kg, respectively.
# VEGFR2 = VEGFR2 (Homo sapiens, UniProt P35968); assay: Z'-Lyte kinase activity assay; assay type: biochemical; conditions: mean of three independent experiments
# Sequence of VEGFR2 (P35968 20-1356): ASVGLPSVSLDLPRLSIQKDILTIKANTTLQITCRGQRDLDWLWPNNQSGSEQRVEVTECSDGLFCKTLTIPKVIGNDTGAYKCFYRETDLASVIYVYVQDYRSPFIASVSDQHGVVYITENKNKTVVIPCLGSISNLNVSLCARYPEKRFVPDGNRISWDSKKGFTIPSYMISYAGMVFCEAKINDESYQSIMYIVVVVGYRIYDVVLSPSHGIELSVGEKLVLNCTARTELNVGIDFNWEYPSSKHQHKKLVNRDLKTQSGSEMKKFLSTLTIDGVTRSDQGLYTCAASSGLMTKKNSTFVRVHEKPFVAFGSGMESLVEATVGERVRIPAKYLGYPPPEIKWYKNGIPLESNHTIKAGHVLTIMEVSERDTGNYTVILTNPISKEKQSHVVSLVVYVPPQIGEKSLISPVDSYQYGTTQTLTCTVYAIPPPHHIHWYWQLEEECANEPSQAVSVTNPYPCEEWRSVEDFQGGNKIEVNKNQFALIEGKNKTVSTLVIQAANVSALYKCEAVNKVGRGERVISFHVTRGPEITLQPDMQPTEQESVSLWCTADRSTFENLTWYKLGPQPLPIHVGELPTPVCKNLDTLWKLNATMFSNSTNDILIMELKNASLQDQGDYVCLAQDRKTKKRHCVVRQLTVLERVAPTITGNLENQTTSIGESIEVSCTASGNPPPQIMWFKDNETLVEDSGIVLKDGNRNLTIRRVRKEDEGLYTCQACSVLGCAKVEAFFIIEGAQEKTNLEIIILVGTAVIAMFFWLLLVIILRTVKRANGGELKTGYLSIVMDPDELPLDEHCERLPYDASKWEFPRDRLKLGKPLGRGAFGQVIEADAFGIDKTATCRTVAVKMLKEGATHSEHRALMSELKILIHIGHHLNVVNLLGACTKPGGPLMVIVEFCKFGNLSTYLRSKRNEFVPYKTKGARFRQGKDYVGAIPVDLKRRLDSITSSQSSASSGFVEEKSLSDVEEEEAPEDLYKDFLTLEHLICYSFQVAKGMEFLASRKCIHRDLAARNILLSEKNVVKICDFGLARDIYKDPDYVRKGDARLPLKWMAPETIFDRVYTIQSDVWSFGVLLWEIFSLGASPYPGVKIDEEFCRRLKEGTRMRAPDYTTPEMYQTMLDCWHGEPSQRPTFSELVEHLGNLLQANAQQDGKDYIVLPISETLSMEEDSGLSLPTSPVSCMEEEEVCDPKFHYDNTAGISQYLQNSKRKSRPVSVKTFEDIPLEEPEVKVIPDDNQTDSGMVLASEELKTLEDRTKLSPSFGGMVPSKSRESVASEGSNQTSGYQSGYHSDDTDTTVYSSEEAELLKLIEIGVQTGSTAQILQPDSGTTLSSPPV
# Procedure: (§2) The affinity of R1498 against 402 kinases was determined by KINOMEScan® (Ambit Biosciences, San Diego, CA) and data were presented as dissociation constant (Kd) values. The inhibition on kinase activity of Aurora kinases and VEGFR2 was further characterized by Z’-Lyte kinase activity assays under corresponding ATP concentrations.
# Aurora kinase B = Aurora kinase B (Homo sapiens, UniProt Q96GD4); assay: Z'-Lyte kinase activity assay; assay type: biochemical; conditions: mean of three independent experiments
# Sequence of Aurora kinase B (Q96GD4 whole entry): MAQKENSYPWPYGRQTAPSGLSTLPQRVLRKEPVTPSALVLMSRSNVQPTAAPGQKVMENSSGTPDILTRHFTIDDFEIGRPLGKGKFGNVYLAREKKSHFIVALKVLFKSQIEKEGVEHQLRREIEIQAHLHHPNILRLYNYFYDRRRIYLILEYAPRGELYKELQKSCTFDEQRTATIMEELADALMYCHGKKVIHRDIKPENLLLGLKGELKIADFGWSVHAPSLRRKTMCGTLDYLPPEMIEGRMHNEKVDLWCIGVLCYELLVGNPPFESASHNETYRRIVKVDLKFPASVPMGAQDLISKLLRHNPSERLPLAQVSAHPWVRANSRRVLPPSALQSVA
# Procedure: as §2
# Aurora kinase A = Aurora kinase A (Homo sapiens, UniProt O14965); assay: Z'-Lyte kinase activity assay; assay type: biochemical; conditions: mean of three independent experiments
# Sequence of Aurora kinase A (O14965 whole entry): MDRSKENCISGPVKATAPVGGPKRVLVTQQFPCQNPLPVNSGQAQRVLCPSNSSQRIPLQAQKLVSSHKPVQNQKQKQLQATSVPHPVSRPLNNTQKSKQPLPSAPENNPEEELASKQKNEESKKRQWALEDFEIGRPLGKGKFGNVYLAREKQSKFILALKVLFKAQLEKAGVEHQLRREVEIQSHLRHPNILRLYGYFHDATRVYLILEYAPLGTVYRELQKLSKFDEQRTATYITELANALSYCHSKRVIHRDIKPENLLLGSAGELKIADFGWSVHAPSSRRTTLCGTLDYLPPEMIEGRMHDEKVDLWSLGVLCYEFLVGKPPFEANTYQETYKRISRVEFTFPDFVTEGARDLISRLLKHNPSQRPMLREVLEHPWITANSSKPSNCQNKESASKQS
# Procedure: as §2
# [4] = Dose range finding and toxicokinetic study; assay type: in vivo; conditions: for MTD at 2 week / AUC(0-t): po
# Procedure: as §1
# HGC-27 xenograft = assay: Xenograft efficacy study; assay type: in vivo, BALB/C nu/nu nude mice; conditions: HGC-27, 25 mg/kg twice a day per oral gavage
# tubulin = assay: In vitro tubulin polymerization assay; assay type: biochemical; conditions: 40 µM, OD340
# Procedure: In vitro tubulin polymerization assay was performed as described previously.
smiles,measurement,setting,value
COc1ccc2c(c1)C(c1ccccc1Cl)=Nc1c(n[nH]c1C)N2 [R1498],IC50,[1],89 nM
same,Oral BA,"[2]; 10-100 mg/kg, micronized API suspension",44-92 (10-100 mg/kg) %
same,clearance,"[2]; male, plasma, iv, 2 mg/kg, single dose",6.3 mL/min/kg
same,Vd,"[2]; male, plasma, iv, 2 mg/kg, single dose, read-out: Vdss",2 L/kg
same,half-life,"[2]; male, plasma, iv 2 mg/kg",240 min
same,HUVEC proliferation under tube formation treatment condition,"HUVEC; 8 hr exposure, data not shown",didn’t affect HUVEC proliferation
same,tube formation,"HUVEC; HUVEC on Matrigel, 3 µM, 8 h, vs DMSO",formed fewer intact tube meshes
same,Body weight changes%,"CNE-2 xenograft; CNE-2, 25 mg/kg twice a day per oral gavage, before vs after treatment",16.3%
same,Tumor Regression,"CNE-2 xenograft; CNE-2, 25 mg/kg twice a day per oral gavage, mice with regression/group",0/10
same,Final TGI%,"CNE-2 xenograft; CNE-2, 25 mg/kg twice-daily per oral gavage, day of study termination",90%
same,MTD at 2 week,"[3]; both sexes, dog, in vivo, po, beagle dogs (F/M), 2-week DRF, bid dosing",> 15 mg/kg
same,AUC(0-t),"[3]; both sexes, dog, plasma, po, 15 mg/kg, beagle dogs, at highest dose, read-out: MTD AUC0-24",> 111 µg·h/mL
same,Histopathology results,"[3]; dogs, 0, 1, 7.5, 15 mg/kg, 2-week DRF",no significant findings at all doses
same,dose at which body weight loss began,[3]; female dog,7.5 mg/kg
same,IC50,VEGFR2,25 ± 6 nM
same,IC50,Aurora kinase B,167 ± 13 nM
same,IC50,Aurora kinase A,67 ± 4 nM
same,dose at which body weight loss began,[4]; female rats,12.5 mg/kg
same,MTD AUC / ED90 AUC,"[4]; female, Wistar, rat, in vivo",8.1
same,MTD at 2 week,"[4]; female, Wistar, rat, in vivo",50 mg/kg
same,AUC(0-t),"[4]; female, Wistar, rat, in vivo, 50 mg/kg",211 µg·h/mL
same,dose at which body weight loss began,[4]; male rats,100 mg/kg
same,MTD at 2 week,"[4]; male, Wistar, rat, in vivo",> 100 mg/kg
same,AUC(0-t),"[4]; male, Wistar, rat, in vivo, 100 mg/kg",> 155 µg·h/mL
same,Final TGI%,HGC-27 xenograft; day of study termination,85%
same,Body weight changes%,HGC-27 xenograft; before vs after treatment,6%
same,Tumor Regression,HGC-27 xenograft; mice with regression/group,0/10
same,effect on microtubule polymerization,tubulin,neither stabilized nor destabilized microtubule polymerization
